# Values quoted from earlier work in paper PMC9050719 (RSC Advances, 2020).
# How the values were obtained:
# [1] = prodrug of MPA
Bioavailability [1],SMILES,Administered dose giving profound toxicity in mice (mice)
–,"COc1c(C)c2c(c(O)c1C/C=C(\C)CCC(=O)O)C(=O)OC2 [MPA, Mycophenolic acid]",over 1000 mg per kg per day
~90%,COc1c(C)c2c(c(O)c1C/C=C(\C)CCC(=O)OCCN1CCOCC1)C(=O)OC2 [Mycophenolate mofetil],–
